ChEMBL document CHEMBL1201862, “PubChem BioAssay data set” (2004)
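1) Cells in 96-well plates. 2) Compound, 48 h, 5 concentrations. 3) Linear interpolation between surrounding doses. 4) Unreached endpoint = highest concentration. Abbreviation: GI50, concentration required for 50% inhibition of growth.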 Activity calls are given as the source filed them. Cut-off read from the data, not from the text of the source: active = GI50 up to about 1.1 µM and inactive = higher.

Key:
Assay in all cases: NCI anticancer screen, dose series, 48 h
NCI-H23 = test system: NCI-H23
HCT-15 = test system: HCT-15
UACC-257 = test system: UACC-257
SNB-19 = test system: SNB-19
OVCAR-8 = test system: OVCAR-8
SN12C = test system: SN12C
COLO 205 = test system: COLO 205
KM-20L2 = test system: KM-20L2
T47D = test system: T47D
M14 = test system: M14
MOLT-4 = test system: MOLT-4
UO-31 = test system: UO-31
MDA-MB-231 = test system: MDA-MB-231
OVCAR-5 = test system: OVCAR-5
KM12 = test system: KM12
NCI-H522 = test system: NCI-H522
786-0 = test system: 786-0
HCT-116 = test system: HCT-116
U-251 = test system: U-251
RXF 393 = test system: RXF 393

Row | SMILES | GI50 (NCI-H23) | GI50 (HCT-15) | GI50 (UACC-257) | GI50 (SNB-19) | GI50 (OVCAR-8) | GI50 (SN12C) | GI50 (COLO 205) | GI50 (KM-20L2) | GI50 (T47D) | GI50 (M14) | GI50 (MOLT-4) | GI50 (UO-31) | GI50 (MDA-MB-231) | GI50 (OVCAR-5) | GI50 (KM12) | GI50 (NCI-H522) | GI50 (786-0) | GI50 (HCT-116) | GI50 (U-251) | GI50 (RXF 393)
1 | O=C1c2c(O)cccc2C(C(=O)CCCC(=O)C2c3cccc(O)c3C(=O)c3c(O)cccc32)c2cccc(O)c21 | 0.27 µM (active) | 0.259 µM | 0.191 µM (active) | 0.29 µM (active) | 0.492 µM (active) | 0.643 µM (active) | 0.34 µM (active) | 1.19 µM (inactive) | 0.279 µM (active) | 0.368 µM (active) | 0.966 µM (active) | 0.417 µM (active) | 0.0822 µM (active) | 0.469 µM (active) | 0.242 µM (active) | 0.158 µM (active) | 2.73 µM (inactive) | 0.22 µM (active) | 0.212 µM (active) | 
2 | CCCCCCCCCC1CC(=O)OC23CCCC(=O)C12O3 (stereo not given) | > 100 µM (inactive) | 84.9 µM | > 100 µM (inactive) | > 100 µM (inactive) | 52.1 µM (inactive) | > 100 µM (inactive) | > 100 µM (inactive) | > 100 µM (inactive) |  | > 100 µM (inactive) | 26.7 µM (inactive) | > 100 µM (inactive) |  | > 100 µM (inactive) | 82.2 µM (inactive) | 94.6 µM (inactive) | > 100 µM (inactive) | > 100 µM (inactive) | 97.1 µM (inactive) | > 100 µM (inactive)
3 | CC(C)N(C(C)C)P(OCCC#N)OC1CC(n2cnc3c(=O)[nH]cnc32)OC1COC(=O)NCCCCCCNC(=O)OC(C)(C)c1ccc(-c2ccccc2)cc1 (stereo not given) | 26.1 µM (inactive) | 22.6 µM | 15.2 µM (inactive) | 21.7 µM (inactive) | 34.4 µM (inactive) | 23.7 µM (inactive) | 17.4 µM (inactive) | 43.2 µM (inactive) |  | 18.4 µM (inactive) | 18.7 µM (inactive) | 17.5 µM (inactive) |  | > 100 µM (inactive) | 18.7 µM (inactive) | 15.6 µM (inactive) | 23 µM (inactive) | 39.1 µM (inactive) | 21.7 µM (inactive) | 27.7 µM (inactive)
